Assay [1] has as its target T1, Nitric oxide synthase, inducible (Mus musculus, UniProt P29477).
T1 sequence (P29477 whole entry): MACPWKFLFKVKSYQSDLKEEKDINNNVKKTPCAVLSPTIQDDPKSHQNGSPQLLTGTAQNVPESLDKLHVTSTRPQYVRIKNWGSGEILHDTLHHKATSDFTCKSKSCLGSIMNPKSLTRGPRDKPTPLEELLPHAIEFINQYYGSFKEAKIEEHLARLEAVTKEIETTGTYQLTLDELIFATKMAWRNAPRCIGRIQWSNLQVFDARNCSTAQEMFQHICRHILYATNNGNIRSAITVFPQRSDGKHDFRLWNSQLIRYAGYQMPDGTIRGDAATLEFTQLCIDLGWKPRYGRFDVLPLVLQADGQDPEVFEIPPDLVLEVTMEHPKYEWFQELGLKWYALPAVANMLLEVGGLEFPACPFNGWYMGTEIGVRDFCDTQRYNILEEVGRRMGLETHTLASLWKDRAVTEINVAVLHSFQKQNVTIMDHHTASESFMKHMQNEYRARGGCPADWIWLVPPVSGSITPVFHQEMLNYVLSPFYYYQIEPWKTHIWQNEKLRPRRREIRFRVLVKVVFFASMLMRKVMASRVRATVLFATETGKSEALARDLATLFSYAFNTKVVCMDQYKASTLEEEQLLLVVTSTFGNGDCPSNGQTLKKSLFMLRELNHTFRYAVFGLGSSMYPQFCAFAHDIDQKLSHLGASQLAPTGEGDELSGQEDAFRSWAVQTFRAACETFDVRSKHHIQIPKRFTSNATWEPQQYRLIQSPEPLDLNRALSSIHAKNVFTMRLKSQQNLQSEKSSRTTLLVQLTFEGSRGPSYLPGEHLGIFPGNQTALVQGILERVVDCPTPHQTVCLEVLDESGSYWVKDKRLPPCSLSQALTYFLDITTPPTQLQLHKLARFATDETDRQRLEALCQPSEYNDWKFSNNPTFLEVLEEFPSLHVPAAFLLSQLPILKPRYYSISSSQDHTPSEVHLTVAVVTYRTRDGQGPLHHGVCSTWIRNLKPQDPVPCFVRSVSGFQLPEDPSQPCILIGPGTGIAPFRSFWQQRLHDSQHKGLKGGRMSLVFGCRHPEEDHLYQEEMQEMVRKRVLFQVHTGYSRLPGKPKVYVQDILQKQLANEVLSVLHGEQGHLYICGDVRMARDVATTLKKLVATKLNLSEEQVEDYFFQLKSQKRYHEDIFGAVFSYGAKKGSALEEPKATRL
In words: The compound was tested for competitive antagonist of Nitric oxide synthase. The assay is classed as functional.

Assay [2] has as its target T2, Nitric oxide synthase, inducible (Mus musculus) (UniProt P29477).
T2 sequence (whole entry): T1 sequence (P29477 whole entry)
Description: Pseudo-first order inactivation rate constant against nitric oxide synthase was determined

For assay [3], the target named is T1, Nitric oxide synthase, inducible. The assay can be described thus: Compound was tested for competitive antagonist of Nitric oxide synthase. The format is functional.

The structures appear in SMILES notation.

By Ki is commonly meant a dissociation constant, usually derived from enzyme kinetics or from competition with a known ligand. A word on the kinact: it is the rate constant of inactivation at saturating inhibitor.

With `CC(=NO)NCCC[C@H](N)C(=O)O`, the affinity in assay [1], expressed as Ki, was 37.7 µM. The compound `CC(=NO)NCCCC[C@H](N)C(=O)O` registered a Ki in assay [1] of 41.1 µM. In assay [1], `CC(=N)NCCCC[C@H](N)C(=O)O` [L-NIL] returned a Ki of 2.16 µM. In addition, the maximal inactivation rate constant (kinact) in assay [2] is 0.35 min⁻¹.

In assay [3], `CC(=N)NCCC[C@H](N)C(=O)O` [L-NIO] yielded an inhibitory constant (Ki) of 1.42 µM. Further, in assay [2], the kinact is 0.16 min⁻¹.

The record behind these values is ChEMBL document CHEMBL1132876, “Examination of N-hydroxylation as a prerequisite mechanism of nitric oxide synthase inactivation” (Bioorg Med Chem Lett, 2000).
